Results from patent US7897759B2, “Metabolically stable puromycin analogs” (MUSC Foundation for Research Development, priority 2007, dated 2011).

What was measured:
[1] = system: JC murine mammary adenocarcinoma cells growing in Balb/c mice; experiment: Antitumor effects in murine mammary tumor model; assay type: in vivo; details: 50 mg/kg intraperitoneal on days 7 and 12, FIG. 3
Description: Model: JC murine mammary adenocarcinoma cells growing in Balb/c mice. Treatment is started when tumor are small, typically ˜20 mm3.
(§1) Treatment: Drug was administered by intraperitoneal injection on days 7, and 12 at 50 mg/kg dissolved in 50% DMSO:50% PBS.

[2] = system: breast cancer (MCF-7) cells; experiment: SRB cytotoxicity assay in MCF-7 cells; assay type: cell-based; details: 72 h, FIG. 1
Description: Dump media and wash wells with PBS. Add approx 100 μL 10% TCA to wells using squirt bottle. Incubate at 4° C. for 30 minutes to 1 hour. Dump TCA and wash plate 5 times with water (use beaker for washes). Add 100 ul SRB dye to wells. Incubate at room temperature for 30 minutes. Dump dye and wash plate 4 times with 1% acetic acid (use beaker for washes). Add 200 μL Tris Base to wells. Incubate at room temperature with agitation for at least 1 hour. Use Softmax pro plate reader with SRB560.
MCF-7 cells were plated at a density of 50,000 cells/well (99 μL/well) in a 96-well microtiter plate and allowed to adhere at 37° C. for 4 h. The drug (dissolved in 1 μL of DMSO/medium solution) was added and cells were incubated at 37° C. for 72 h. 100 μL of a 10% solution of trichloroacetic acid was then added and the cells were incubated for 1 h at 4° C. The supernatant was removed and the plate was washed 5 times with water. 100 μL of SRB dye (Promega) was added and the plate was incubated at rt for 30 min. The dye was removed and the plate was washed 4 times with 1% acetic acid solution. 200 μL of Tris Base was added, and the plate was incubated at rt with agitation for 1 h. Absorbance was read at 560 nm.

leukemia (HL-60) cells = experiment: MTS cytotoxicity assay in HL-60 cells; assay type: cell-based; details: 72 h, FIG. 2
Description: HL-60 cells were plated at a density of 4,000 cells/well (99 μL/well) in a 96-well microtiter plate. The drug (dissolved in 1 μL of DMSO/medium solution) was added and cells were incubated at 37° C. for 72 h. 20 μL of a solution of MTS/PMS (Promega, 5% PMS/MTS) was then added, the cells were incubated for 1 h, after which absorbance was read at 490 nm.

[3] = Body weight / toxicity in murine mammary tumor model; assay type: in vivo
Description: Model: JC murine mammary adenocarcinoma cells growing in Balb/c mice.
as §1

[4] = system: Bacillus subtilis ATCC 6633; details: B. subtilis; Gilbert et al., Tetrahedron 2005; cited from earlier work
[5] = system: Bacillus cereus ATCC 10987; details: B. cereus; Gilbert et al., Tetrahedron 2005; cited from earlier work

Question: With `CN(C)c1ncnc2c1ncn2[C@@H]1O[C@H](CO)[C@H](CC(=O)[C@@H](N)Cc2ccccc2)C1O` (stereo partly drawn) [GG-48, 9-{3-[1-(3-amino-2-oxo-4-phenyl)butyl]-3-deoxy-D-ribofuranosyl}-6-dimethylaminopurine] as the compound, how does the “effect on tumor growth” value [1] read?
Answer: suppressed tumor growth

Question: And the “cytotoxic activity (killing curve) versus puromycin” value [2]?
Answer: killing curves overlapping those of puromycin

Question: What about the “cytotoxic activity (killing curve) versus puromycin” value (leukemia (HL-60) cells) of the same compound?
Answer: killing curves overlapping those of puromycin

Question: And the toxicity ([3]; 50 mg/kg intraperitoneal on days 7 and 12)?
Answer: no obvious toxicity

Question: And the “effect on body weight” value ([3]; 50 mg/kg intraperitoneal, during the treatment period (or after), FIG. 4)?
Answer: no loss of body weight

Question: Which “antimicrobial activity (MIC)” value [4] does the source give for `COc1ccc(C[C@H](N)C(=O)N[C@H]2[C@@H](O)[C@H](n3cnc4c(N(C)C)ncnc43)O[C@@H]2CO)cc1` [puromycin] here?
Answer: 3.13 µg/mL

Question: And the “antimicrobial activity (MIC)” value [5]?
Answer: 3.13 µg/mL
